≈ marks a conversion by molar mass, not a printed value.

The first assay deals with Staphylococcus aureus. Put plainly: Antimicrobial activity against Staphylococcus aureus ATCC 29213 at 100 ug/ml after 24 hrs by agar well diffusion assay. To be noted: ATCC 29213, 24 h, read-out: DIZ. Type of assay: functional. On the technique in general: In agar diffusion tests the substance spreads into inoculated agar from a disc or well.
In the case of `Cc1ccc(-n2nnc(C3=NNC(c4ccc(F)cc4)C3)c2C)cc1` (centres undefined), the zone of inhibition at 100 µg/mL was 20 mm.

Take `Cc1ccc(-n2nnc(C3=NN(c4nc(-c5ccccc5)cs4)C(c4ccc(F)cc4)C3)c2C)cc1` (centres undefined): the zone of inhibition at 100 µg/mL amounted to 26 mm.

Another assay has as its system Bacillus subtilis. Put plainly: Antimicrobial activity against Bacillus subtilis ATCC 6633 at 100 ug/ml after 24 hrs by agar well diffusion assay. As to conditions: ATCC 6633, 24 h, read-out: DIZ. It counts as functional.
As for `Cc1ccc(-n2nnc(C3=NN(c4nc(-c5ccccc5)cs4)C(c4ccc(F)cc4)C3)c2C)cc1` (centres undefined), the zone of inhibition at 100 µg/mL came out at 24 mm.

The test system of the next assay is Priestia megaterium. The experiment in a line: Antimicrobial activity against Bacillus megaterium ATCC 9885 at 100 ug/ml after 24 hrs by agar well diffusion assay. Type of assay: functional. As to conditions: ATCC 9885, 24 h, read-out: DIZ.
On to `Cc1ccc(-n2nnc(C3=NNC(c4ccc(F)cc4)C3)c2C)cc1` (centres undefined), for which the zone of inhibition at 100 µg/mL turned out to be 16 mm.

Consider `Cc1ccc(-n2nnc(C3=NN(c4nc(-c5ccccc5)cs4)C(c4ccc(F)cc4)C3)c2C)cc1` (centres undefined), for which the zone of inhibition at 100 µg/mL amounted to 24 mm.

Another assay concerns Micrococcus luteus. Put plainly: Antimicrobial activity against Sarcina lutea at 100 ug/ml after 24 hrs by agar well diffusion assay. To be noted: read-out: DIZ. Type of assay: functional.
Consider `Cc1ccc(-n2nnc(C3=NNC(c4ccc(F)cc4)C3)c2C)cc1` (centres undefined), for which the zone of inhibition at 100 µg/mL came out at 18 mm.

In the case of `Cc1ccc(-n2nnc(C3=NN(c4nc(-c5ccccc5)cs4)C(c4ccc(F)cc4)C3)c2C)cc1` (centres undefined), the zone of inhibition at 100 µg/mL is 22 mm.

A further assay concerns Klebsiella pneumoniae. Put plainly: Antimicrobial activity against Klebsiella pneumoniae ATCC 13883 at 100 ug/ml after 24 hrs by agar well diffusion assay. As to conditions: ATCC 13883, 24 h, read-out: DIZ. It counts as functional.
Take `Cc1ccc(-n2nnc(C3=NNC(c4ccc(F)cc4)C3)c2C)cc1` (centres undefined): the zone of inhibition at 100 µg/mL was found to be 16 mm.

Regarding `Cc1ccc(-n2nnc(C3=NN(c4nc(-c5ccccc5)cs4)C(c4ccc(F)cc4)C3)c2C)cc1` (centres undefined), the zone of inhibition at 100 µg/mL was 26 mm.

In the next assay the test system is Pseudomonas aeruginosa. The experiment in a line: Antimicrobial activity against Pseudomonas aeruginosa ATCC 27953 at 100 ug/ml after 24 hrs by agar well diffusion assay. To be noted: ATCC 27953, 24 h, read-out: DIZ. Type of assay: functional.
Take `Cc1ccc(-n2nnc(C3=NNC(c4ccc(F)cc4)C3)c2C)cc1` (centres undefined): the zone of inhibition at 100 µg/mL is 30 mm.

Turning to `Cc1ccc(-n2nnc(C3=NN(c4nc(-c5ccccc5)cs4)C(c4ccc(F)cc4)C3)c2C)cc1` (centres undefined), the zone of inhibition at 100 µg/mL stood at 28 mm.

Another assay deals with Escherichia coli. The experiment in a line: Antimicrobial activity against Escherichia coli ATCC 25922 at 100 ug/ml after 24 hrs by agar well diffusion assay. Type of assay: functional. To be noted: ATCC 25922, 24 h, read-out: DIZ.
As to `Cc1ccc(-n2nnc(C3=NNC(c4ccc(F)cc4)C3)c2C)cc1` (centres undefined), the zone of inhibition at 100 µg/mL is 16 mm.

On to `Cc1ccc(-n2nnc(C3=NN(c4nc(-c5ccccc5)cs4)C(c4ccc(F)cc4)C3)c2C)cc1` (centres undefined), for which the zone of inhibition at 100 µg/mL is 16 mm.

Another assay deals with Saccharomyces cerevisiae. The experiment in a line: Antifungal activity against Saccharomyces cerevisiae at 100 ug/ml after 24 hrs by agar well diffusion assay. To be noted: read-out: DIZ. It counts as functional.
`Cc1ccc(-n2nnc(C3=NNC(c4ccc(F)cc4)C3)c2C)cc1` (centres undefined): the zone of inhibition at 100 µg/mL was found to be 18 mm.

With `Cc1ccc(-n2nnc(C3=NN(c4nc(-c5ccccc5)cs4)C(c4ccc(F)cc4)C3)c2C)cc1` (centres undefined), the zone of inhibition at 100 µg/mL was determined as 22 mm.

Another assay relates to Candida albicans. The experiment in a line: Antifungal activity against Candida albicans NRRL Y-477 at 100 ug/ml after 24 hrs by agar well diffusion assay. Type of assay: functional. As to conditions: NRRL Y-477, 24 h, read-out: DIZ.
With `Cc1ccc(-n2nnc(C3=NNC(c4ccc(F)cc4)C3)c2C)cc1` (centres undefined), the zone of inhibition at 100 µg/mL came to 16 mm.

In the case of `Cc1ccc(-n2nnc(C3=NN(c4nc(-c5ccccc5)cs4)C(c4ccc(F)cc4)C3)c2C)cc1` (centres undefined), the zone of inhibition at 100 µg/mL was 20 mm.

A further assay relates to Staphylococcus aureus. The experiment in a line: Antimicrobial activity against Staphylococcus aureus ATCC 29213 after 24 hrs by two-fold serial dilution method. Type of assay: functional. To be noted: ATCC 29213, 24 h.
As to `Cc1ccc(-n2nnc(C3=NNC(c4ccc(F)cc4)C3)c2C)cc1` (centres undefined), the lowest concentration to inhibit growth (MIC) was 33 µg/mL (≈ 98.4 µM).

As for `Cc1ccc(-n2nnc(C3=NN(c4nc(-c5ccccc5)cs4)C(c4ccc(F)cc4)C3)c2C)cc1` (centres undefined), it took 16.5 µg/mL (≈ 33.4 µM) to inhibit growth (MIC).

Another assay relates to Bacillus subtilis. Put plainly: Antimicrobial activity against Bacillus subtilis ATCC 6633 after 24 hrs by two-fold serial dilution method. Type of assay: functional. As to conditions: ATCC 6633, 24 h.
Regarding `Cc1ccc(-n2nnc(C3=NN(c4nc(-c5ccccc5)cs4)C(c4ccc(F)cc4)C3)c2C)cc1` (centres undefined), 33 µg/mL (≈ 66.7 µM) was the least that counted as inhibitory (MIC).

A further assay deals with Priestia megaterium. The experiment in a line: Antimicrobial activity against Bacillus megaterium ATCC 9885 after 24 hrs by two-fold serial dilution method. Type of assay: functional. As to conditions: ATCC 9885, 24 h.
In the case of `Cc1ccc(-n2nnc(C3=NNC(c4ccc(F)cc4)C3)c2C)cc1` (centres undefined), the MIC (in general, the lowest concentration found to suppress growth) turned out to be 132 µg/mL (≈ 394 µM).

`Cc1ccc(-n2nnc(C3=NN(c4nc(-c5ccccc5)cs4)C(c4ccc(F)cc4)C3)c2C)cc1` (centres undefined): the minimum inhibitory concentration (MIC) is 33 µg/mL (≈ 66.7 µM).

Another assay has as its system Micrococcus luteus. Put plainly: Antimicrobial activity against Sarcina lutea after 24 hrs by two-fold serial dilution method. It counts as functional.
Details: not given
`Cc1ccc(-n2nnc(C3=NNC(c4ccc(F)cc4)C3)c2C)cc1` (centres undefined) gave a minimum inhibitory concentration (MIC) of 66 µg/mL (≈ 197 µM).

The compound `Cc1ccc(-n2nnc(C3=NN(c4nc(-c5ccccc5)cs4)C(c4ccc(F)cc4)C3)c2C)cc1` (centres undefined) gave a minimal inhibitory concentration (MIC) of 66 µg/mL (≈ 133 µM).

Another assay has as its system Klebsiella pneumoniae. The experiment in a line: Antimicrobial activity against Klebsiella pneumoniae ATCC 13883 after 24 hrs by two-fold serial dilution method. It counts as functional. To be noted: ATCC 13883, 24 h.
Regarding `Cc1ccc(-n2nnc(C3=NNC(c4ccc(F)cc4)C3)c2C)cc1` (centres undefined), the minimum inhibitory concentration (MIC) amounted to 132 µg/mL (≈ 394 µM).

`Cc1ccc(-n2nnc(C3=NN(c4nc(-c5ccccc5)cs4)C(c4ccc(F)cc4)C3)c2C)cc1` (centres undefined) yielded a minimal inhibitory concentration (MIC) of 33 µg/mL (≈ 66.7 µM).

The subject of another assay is Pseudomonas aeruginosa. Put plainly: Antimicrobial activity against Pseudomonas aeruginosa ATCC 27953 after 24 hrs by two-fold serial dilution method. It counts as functional. As to conditions: ATCC 27953, 24 h.
In turn, `Cc1ccc(-n2nnc(C3=NNC(c4ccc(F)cc4)C3)c2C)cc1` (centres undefined) registered an MIC of 8.25 µg/mL (≈ 24.6 µM).

Turning to `Cc1ccc(-n2nnc(C3=NN(c4nc(-c5ccccc5)cs4)C(c4ccc(F)cc4)C3)c2C)cc1` (centres undefined), the MIC turned out to be 8.25 µg/mL (≈ 16.7 µM).

The next assay concerns Escherichia coli. The experiment in a line: Antimicrobial activity against Escherichia coli ATCC 25922 after 24 hrs by two-fold serial dilution method. Type of assay: functional. As to conditions: ATCC 25922, 24 h.
`Cc1ccc(-n2nnc(C3=NNC(c4ccc(F)cc4)C3)c2C)cc1` (centres undefined): it took 132 µg/mL (≈ 394 µM) to inhibit growth (MIC).

`Cc1ccc(-n2nnc(C3=NN(c4nc(-c5ccccc5)cs4)C(c4ccc(F)cc4)C3)c2C)cc1` (centres undefined) showed an MIC of 132 µg/mL (≈ 267 µM).

The next assay concerns Saccharomyces cerevisiae. The experiment in a line: Antifungal activity against Saccharomyces cerevisiae by two-fold serial dilution method. Type of assay: functional.
Details: not given
The compound `Cc1ccc(-n2nnc(C3=NNC(c4ccc(F)cc4)C3)c2C)cc1` (centres undefined) registered an MIC of 66 µg/mL (≈ 197 µM).

`Cc1ccc(-n2nnc(C3=NN(c4nc(-c5ccccc5)cs4)C(c4ccc(F)cc4)C3)c2C)cc1` (centres undefined) returned a minimal inhibitory concentration (MIC) of 33 µg/mL (≈ 66.7 µM).

For a further assay, the system named is Candida albicans. Put plainly: Antifungal activity against Candida albicans NRRL Y-477 by two-fold serial dilution method.
Details: not given
Type of assay: functional.
With `Cc1ccc(-n2nnc(C3=NNC(c4ccc(F)cc4)C3)c2C)cc1` (centres undefined), the MIC is 132 µg/mL (≈ 394 µM).

Turning to `Cc1ccc(-n2nnc(C3=NN(c4nc(-c5ccccc5)cs4)C(c4ccc(F)cc4)C3)c2C)cc1` (centres undefined), 66 µg/mL (≈ 133 µM) was the least that counted as inhibitory (MIC).

Values taken from ChEMBL document CHEMBL2021863, “Design and synthesis of new 4-pyrazolin-3-yl-1,2,3-triazoles and 1,2,3-triazol-4-yl-pyrazolin-1-ylthiazoles as potential antimicrobial agents” (2012).
